What is called IC50 is the concentration that gives 50% inhibition. Read a low IC50 as higher potency.

The values that follow come from PMC12165925 (Natural Products and Bioprospecting, 2025).

Common to all, as to test: microbe, parasite or virus in culture
Holding throughout (format): cell-based
Conditions in all cases: hACE2-HEK293T cells

The test system of assay [1] is SARS-CoV-2-S pseudovirus Omicron variant.
Assay [2] concerns SARS-CoV-2-S pseudovirus Gamma variant.
Assay [3] deals with SARS-CoV-2-S pseudovirus Delta variant.

Some results are limits rather than exact numbers.

Regarding `C[C@@H]1O[C@@H](O[C@H]2[C@H](OC(=O)[C@]34CCC(C)(C)C[C@H]3C3=CC[C@@H]5[C@@]6(C)C[C@H](O)[C@H](O[C@@H]7O[C@H](CO)[C@@H](O)[C@H](O)[C@H]7O)C(CO)(CO)[C@@H]6CC[C@@]5(C)[C@]3(C)C[C@H]4O)OC[C@H](O)[C@@H]2O)[C@H](O)[C@H](O)[C@H]1O[C@@H]1OC[C@@H](O)[C@H](O)[C@H]1O` [DPD, Deapio platycodin D], the IC50 in assay [1] worked out at 1030 ± 20 nM; in assay [2], 1000 ± 40 nM; in assay [3], 830 ± 70 nM.
The matching figures for `Oc1cc(O)c2cc(O)c(-c3cc(O)c(O)c(O)c3)[o+]c2c1` [Delphinidin]: 10800 ± 680 nM, > 200000 nM and > 200000 nM.
